The text below walks through data of US20170000740A9, “COMBINATION THERAPEUTIC NANOPARTICLES” (UNIVERSITY OF GEORGIA RESEARCH FOUNDATION INC., priority 2013, published 2017).

Molecules are shown by their SMILES.

For this experiment, the system named is human prostate cancer PC-3 cells. Kind of experiment: Cytotoxic profile by MTT assay on human prostate cancer PC-3 cell line. Format: cell-based. The following applies: incubation time=48 h. On the technique in general: Tetrazolium dyes change colour on reduction, which living cells bring about.

On to `CC(=O)Oc1ccccc1C(=O)O` [Aspirin], for which, for the setting “Homo sapiens”, the IC50 (commonly the midpoint of a concentration-inhibition curve) is more than 100 µM. As to `N.N.[Cl][Pt][Cl]` [Cisplatin], the IC50 came out at 14 µM.
